Measured values from ChEMBL document CHEMBL2311459, “Naphthyridinone (NTD) integrase inhibitors: N1 protio and methyl combination substituent effects with C3 amide groups” (Bioorg Med Chem Lett, 2013).

Tests used:
[1] = system: Human immunodeficiency virus; experiment: Antiviral activity against HIV; type: functional, organism-based; conditions: Human immunodeficiency virus 1
[2] = target: Human immunodeficiency virus type 1 integrase (Human immunodeficiency virus 1, UniProt Q7ZJM1); experiment: Inhibition of HIV1 integrase strand transfer activity
[3] = system: Human immunodeficiency virus; experiment: Antiviral activity against HIV in presence of 40 mg/mL of purified human serum albumin; type: functional, organism-based; conditions: Human immunodeficiency virus 1
[4] = system: Human immunodeficiency virus; experiment: Antiviral activity against HIV infected in human MT4 cells; type: functional, organism-based; conditions: Human immunodeficiency virus 1, MT4
[5] = Therapeutic index, ratio of cytotoxicity against human MT4 cells to antiviral activity against HIV; type: cell-based; conditions: read-out: TI
[6] = AUC in CD rat at 5 mg/kg, po; type: ADME, organism-based; design: dose 5 mg/kg, route oral; conditions: plasma
[7] = Ratio of plasma concentration in CD rat at 1 mg/kg, iv and 5 mg/kg, po after 24 hrs to IC50 for HIV in presence of 40 mg/mL of purified human serum albumin; type: ADME, organism-based; conditions: in vivo
[8] = Ratio of plasma concentration in dog at 1 mg/kg, iv and 5 mg/kg, po after 24 hrs to IC50 for HIV in presence of 40 mg/mL of purified human serum albumin; type: ADME, organism-based; conditions: in vivo
[9] = AUC in dog at 5 mg/kg, po; type: ADME, organism-based, Canis lupus familiaris; design: dose 5 mg/kg, route oral; conditions: plasma
[10] = Half life in CD rat at 1 mg/kg, iv and 5 mg/kg, po; type: ADME, organism-based; conditions: in vivo
[11] = Ratio of plasma concentration in cynomolgus monkey at 1 mg/kg, iv and 5 mg/kg, po after 24 hrs to IC50 for HIV in presence of 40 mg/mL of purified human serum albumin; type: ADME, organism-based; conditions: in vivo
[12] = Half life in dog at 1 mg/kg, iv and 5 mg/kg, po; type: ADME, organism-based, Canis lupus familiaris; conditions: in vivo
[13] = AUC (0 to 24 hrs) in cynomolgus monkey at 5 mg/kg, po; type: ADME, organism-based, Macaca fascicularis; design: time < 24 hr, dose 5 mg/kg, route oral; conditions: plasma
[14] = Plasma clearance in cynomolgus monkey at 1 mg/kg, iv and 5 mg/kg, po; type: ADME, organism-based, Macaca fascicularis
[15] = Half life in cynomolgus monkey at 1 mg/kg, iv and 5 mg/kg, po; type: ADME, organism-based, Macaca fascicularis; conditions: in vivo
[16] = Plasma clearance in dog at 1 mg/kg, iv and 5 mg/kg, po; type: ADME, organism-based, Canis lupus familiaris
[17] = Plasma clearance in CD rat at 1 mg/kg, iv and 5 mg/kg, po; type: ADME, organism-based

Chain of Human immunodeficiency virus type 1 integrase (Q7ZJM1 whole entry): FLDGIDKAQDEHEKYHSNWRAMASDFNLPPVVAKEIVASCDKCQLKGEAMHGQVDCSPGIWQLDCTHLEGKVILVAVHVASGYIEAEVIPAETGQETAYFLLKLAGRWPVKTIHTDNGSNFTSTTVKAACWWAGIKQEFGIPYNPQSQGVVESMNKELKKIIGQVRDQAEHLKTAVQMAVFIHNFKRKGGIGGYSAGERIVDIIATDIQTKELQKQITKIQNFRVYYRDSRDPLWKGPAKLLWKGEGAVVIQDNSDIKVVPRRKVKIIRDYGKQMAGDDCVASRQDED

| IC50 [1] | IC50 [2] | IC50 [3] | Compound | further results |
| --- | --- | --- | --- | --- |
| 7 nM | 3 nM | 78 nM | C[C@H](O)CNC(=O)c1c(O)c2ncc(Cc3ccc(F)cc3)cc2[nH]c1=O | – |
| 2 nM | 16 nM | 15 nM | Cn1c(=O)c(C(=O)NCCCN2CCCC2=O)c(O)c2ncc(Cc3ccc(F)cc3)cc21 | – |
| 4 nM | 13 nM | 23 nM | Cn1c(=O)c(C(=O)NCCN2CCOCC2)c(O)c2ncc(Cc3ccc(F)cc3)cc21 | IC50 [4]: 64 nM; selectivity ratio [5]: 165 |
| 2 nM | 5 nM | 9 nM | Cn1c(=O)c(C(=O)NCCN2CCNC2=O)c(O)c2ncc(Cc3ccc(F)cc3)cc21 | AUC [6]: 3550 ng·h/mL; IC50 [4]: 11 nM; Ratio [7]: 0; selectivity ratio [5]: 1620 |
| 2 nM | 5 nM | 12 nM | CC(=O)NCCNC(=O)c1c(O)c2ncc(Cc3ccc(F)cc3)cc2n(C)c1=O | IC50 [4]: 22 nM; selectivity ratio [5]: 807 |
| 1 nM | 5 nM | 7 nM | CN(CCNC(=O)c1c(O)c2ncc(Cc3ccc(F)cc3)cc2n(C)c1=O)S(C)(=O)=O | AUC [6]: 5810 ng·h/mL; IC50 [4]: 7 nM; Ratio [7]: 1.7; selectivity ratio [5]: > 7200 |
| 9 nM | 4 nM | 49 nM | CN(CCNC(=O)c1c(O)c2ncc(Cc3ccc(F)cc3)cc2[nH]c1=O)S(C)(=O)=O | – |
| 48 nM | 9 nM | 170 nM | O=C(NC1CCS(=O)(=O)CC1)c1c(O)c2ncc(Cc3ccc(F)cc3)cc2[nH]c1=O | – |
| 5 nM | 5 nM | 256 nM | CSCCNC(=O)c1c(O)c2ncc(Cc3ccc(F)cc3)cc2[nH]c1=O | – |
| 7 nM | 5 nM | 33 nM | C[C@H](CO)NC(=O)c1c(O)c2ncc(Cc3ccc(F)cc3)cc2[nH]c1=O | AUC [6]: 6370 ng·h/mL; IC50 [4]: 20 nM; Ratio [7]: 0; selectivity ratio [5]: > 400 |
| 6 nM | 4 nM | 19 nM | C[C@@H](CO)NC(=O)c1c(O)c2ncc(Cc3ccc(F)cc3)cc2[nH]c1=O | – |
| 2 nM | 3 nM | 19 nM | CC(C)(CO)NC(=O)c1c(O)c2ncc(Cc3ccc(F)cc3)cc2[nH]c1=O | – |
| 7 nM | 6 nM | 282 nM | C[C@@H](O)CNC(=O)c1c(O)c2ncc(Cc3ccc(F)cc3)cc2[nH]c1=O | – |
| 4 nM | 4 nM | 41 nM | CC(C)(CO)CNC(=O)c1c(O)c2ncc(Cc3ccc(F)cc3)cc2[nH]c1=O | – |
| 1 nM | 5 nM | 2900 nM | Cn1c(=O)c(C(=O)NCC(F)F)c(O)c2ncc(Cc3ccc(F)cc3)cc21 | – |
| 1 nM | 5 nM | 40 nM | Cn1c(=O)c(C(=O)NCCCO)c(O)c2ncc(Cc3ccc(F)cc3)cc21 | – |
| 2 nM | 8 nM | 11 nM | C[C@H](CO)NC(=O)c1c(O)c2ncc(Cc3ccc(F)cc3)cc2n(C)c1=O | IC50 [4]: 4 nM; selectivity ratio [5]: > 12500 |
| 1 nM | 4 nM | 15 nM | C[C@@H](CO)NC(=O)c1c(O)c2ncc(Cc3ccc(F)cc3)cc2n(C)c1=O | AUC [6]: 22600 ng·h/mL; Ratio [8]: 0; AUC [9]: 1120 ng·h/mL; Ratio [7]: 2.7 |
| 3 nM | 6 nM | 28 nM | Cn1c(=O)c(C(=O)NC(C)(C)CO)c(O)c2ncc(Cc3ccc(F)cc3)cc21 | – |
| 3 nM | 7 nM | 180 nM | Cn1c(=O)c(C(=O)NC2(CO)CCCC2)c(O)c2ncc(Cc3ccc(F)cc3)cc21 | – |

| IC50 [1] | IC50 [2] | IC50 [3] | Compound | further results |
| --- | --- | --- | --- | --- |
| 2 nM | 2 nM | 110 nM | C[C@H](O)CNC(=O)c1c(O)c2ncc(Cc3ccc(F)cc3)cc2n(C)c1=O | – |
| 3 nM | 4 nM | 18 nM | C[C@H](CO)CNC(=O)c1c(O)c2ncc(Cc3ccc(F)cc3)cc2n(C)c1=O | – |
| 9 nM | 6 nM | 34 nM | Cn1c(=O)c(C(=O)NCCCN2CCCC2)c(O)c2ncc(Cc3ccc(F)cc3)cc21 | – |
| 8 nM | 5 nM | 230 nM | CC(C)CCNC(=O)c1c(O)c2ncc(Cc3ccc(F)cc3)cc2[nH]c1=O | – |
| 4 nM | 9 nM | 65 nM | CCOCCNC(=O)c1c(O)c2ncc(Cc3ccc(F)cc3)cc2[nH]c1=O | – |
| 8 nM | 9 nM | 190 nM | CC(C)OCCCNC(=O)c1c(O)c2ncc(Cc3ccc(F)cc3)cc2[nH]c1=O | – |
| 6 nM | 5 nM | 51 nM | O=C(NCCO)c1c(O)c2ncc(Cc3ccc(F)cc3)cc2[nH]c1=O | AUC [6]: 3060 ng·h/mL; IC50 [4]: 80 nM; Ratio [7]: 0.8; selectivity ratio [5]: > 250 |
| 4 nM | 11 nM | 41 nM | O=C(NCCCO)c1c(O)c2ncc(Cc3ccc(F)cc3)cc2[nH]c1=O | – |
| 38 nM | 14 nM | 172 nM | O=C(NCCN1CCCCC1)c1c(O)c2ncc(Cc3ccc(F)cc3)cc2[nH]c1=O | – |
| 39 nM | 23 nM | 109 nM | O=C(NCCCN1CCCC1)c1c(O)c2ncc(Cc3ccc(F)cc3)cc2[nH]c1=O | – |
| 5 nM | 4 nM | 31 nM | O=C(NCCCN1CCCC1=O)c1c(O)c2ncc(Cc3ccc(F)cc3)cc2[nH]c1=O | – |
| 6 nM | 7 nM | 42 nM | O=C(NCCN1CCOCC1)c1c(O)c2ncc(Cc3ccc(F)cc3)cc2[nH]c1=O | IC50 [4]: 32 nM; selectivity ratio [5]: > 250 |
| 6 nM | 8 nM | 37 nM | O=C(NCCCN1CCOCC1)c1c(O)c2ncc(Cc3ccc(F)cc3)cc2[nH]c1=O | – |
| 28 nM | 11 nM | 110 nM | CN1CCN(CCCNC(=O)c2c(O)c3ncc(Cc4ccc(F)cc4)cc3[nH]c2=O)CC1 | – |
| 2 nM | 4 nM | 650 nM | CCNC(=O)c1c(O)c2ncc(Cc3ccc(F)cc3)cc2n(C)c1=O | – |
| – | 45 nM | – | NC(=O)c1c(O)c2ncc(Cc3ccc(F)cc3)cc2[nH]c1=O | – |
| 5 nM | 5 nM | 35 nM | COCCNC(=O)c1c(O)c2ncc(Cc3ccc(F)cc3)cc2[nH]c1=O | AUC [6]: 1650 ng·h/mL; Ratio [7]: 0.1 |
| 1 nM | 4 nM | 55 nM | CNC(=O)c1c(O)c2ncc(Cc3ccc(F)cc3)cc2n(C)c1=O | Ratio [11]: 9.2; Ratio [8]: 0.8; AUC [9]: 13200 ng·h/mL; half-life [12]: 1.6 h; AUC(0-t) at 24 h [13]: 38600 ng·h/mL; clearance [14]: 2 mL/min/kg; half-life [15]: 3.9 h; clearance [16]: 8.6 mL/min/kg |
| 2 nM | 8 nM | 20 nM | Cn1c(=O)c(C(=O)NCCO)c(O)c2ncc(Cc3ccc(F)cc3)cc21 [GSK-364735] | AUC [6]: 22800 ng·h/mL; clearance [17]: 3.2 mL/min/kg; IC50 [4]: 5 nM; Ratio [7]: 0.3; selectivity ratio [5]: > 2000 |

| Compound | IC50 [1] | IC50 [2] | IC50 [3] | further results |
| --- | --- | --- | --- | --- |
| COCCNC(=O)c1c(O)c2ncc(Cc3ccc(F)cc3)cc2n(C)c1=O | – | 4 nM | 48 nM | AUC [6]: 1850 ng·h/mL; half-life [10]: 4 h; Ratio [8]: 0; AUC [9]: 1240 ng·h/mL; Ratio [7]: 0.1 |
| CNC(=O)c1c(O)c2ncc(Cc3ccc(F)cc3)cc2[nH]c1=O | 3 nM | 6 nM | – | – |
